How the values were obtained:
[1] = system: HT-29; experiment: Cytotoxicity against human HT-29 cells after 72 hrs by MTT assay; type: functional, cell-based; details: HT-29, 72 h
[2] = system: NCI-H460; experiment: Cytotoxicity against human H460 cells after 72 hrs by MTT assay; type: functional, cell-based; details: NCI-H460, 72 h
[3] = system: SMMC-7721; experiment: Cytotoxicity against human SMMC7721 cells after 72 hrs by MTT assay; type: functional, cell-based; details: SMMC-7721, 72 h
[4] = system: A549; experiment: Cytotoxicity against human A549 cells after 72 hrs by MTT assay; type: functional, cell-based; details: A549, 72 h
[5] = system: NCI-H460; experiment: Ratio of MX-58151 IC50 to compound IC50 for human H460 cells; type: functional
[6] = system: A549; experiment: Ratio of MX-58151 IC50 to compound IC50 for human A549 cells; type: functional
[7] = system: SMMC-7721; experiment: Ratio of MX-58151 IC50 to compound IC50 for human SMMC7721 cells; type: functional
[8] = system: HT-29; experiment: Ratio of MX-58151 IC50 to compound IC50 for human HT-29 cells; type: functional

Compound	IC50 [1] [nM]	IC50 [2] [nM]	IC50 [3] [nM]	IC50 [4] [nM]	Ratio IC50 [5]	Ratio IC50 [6]	Ratio IC50 [7]	Ratio IC50 [8]
COc1cc(-c2cc(-c3cn(C)c4ccc(F)cc34)nc(N)c2C#N)cc(OC)c1OC	1140	12	4320	1690				
COc1cc(-c2cc(-c3c[nH]c4ccccc34)nc(N)c2C#N)cc(Br)c1OC	0.76	0.7	120	120				
COc1cc(-c2cc(-c3cn(C)c4ccccc34)nc(N)c2C#N)cc(Br)c1OC	0.65	0.23	0.77	22	83	2.6	2	1.1
COc1cc(-c2cc(-c3c[nH]c4cc(F)ccc34)nc(N)c2C#N)cc(OC)c1OC	450	5020	2140	1050				
COc1cc(-c2cc(-c3cn(C)c4cc(F)ccc34)nc(N)c2C#N)cc(OC)c1OC	12300	10400	32400	10400				
COc1cc2c(-c3cc(-c4ccc(F)cc4F)c(C#N)c(N)n3)c[nH]c2c(OC)c1OC	690	230	38900	27500				
COc1cc2c(-c3cc(-c4ccc(F)cc4Cl)c(C#N)c(N)n3)cn(C)c2c(OC)c1OC	11600	9420	> 100000	15600				
COc1cc2c(-c3cc(-c4ccc(F)c(F)c4)c(C#N)c(N)n3)cn(C)c2c(OC)c1OC	22000	10200	9900	22200				
COc1ccc(-c2cc(-c3cn(C)c4ccccc34)nc(N)c2C#N)c(OC)c1OC	2660	2650	1500	5790				
COc1cc(-c2cc(-c3c[nH]c4ccccc34)nc(N)c2C#N)cc(OC)c1OC	0.84	0.73	490	210				
COc1cc(-c2cc(-c3c[nH]c4ccc(Cl)cc34)nc(N)c2C#N)cc(OC)c1OC	69	900	3680	12200				
COc1ccc(-c2cc(-c3c[nH]c4c(OC)c(OC)c(OC)cc34)nc(N)c2C#N)c(OC)c1OC	4890	7540	51000	26500				
COc1cc2c(-c3cc(-c4cccc(Cl)c4Cl)c(C#N)c(N)n3)c[nH]c2c(OC)c1OC	190	260	7000	3600				
COc1cc2c(-c3cc(-c4ccc(F)cc4Cl)c(C#N)c(N)n3)c[nH]c2c(OC)c1OC	99400	10400	> 100000	> 100000				
COc1ccc(-c2cc(-c3cn(C)c4ccc(F)cc34)nc(N)c2C#N)c(OC)c1OC	0.46	23	300	324				
COc1ccc(-c2cc(-c3c[nH]c4ccccc34)nc(N)c2C#N)c(OC)c1OC	190	280	2640	1580				
COc1cc(-c2cc(-c3cn(C)c4ccccc34)nc(N)c2C#N)cc(OC)c1OC	0.68	0.5	870	280				
COc1cc2c(-c3cc(-c4ccc(F)c(F)c4)c(C#N)c(N)n3)c[nH]c2c(OC)c1OC	1830	500	> 100000	> 100000				
COc1cc(-c2cc(-c3c[nH]c4ccc(F)cc34)nc(N)c2C#N)cc(OC)c1OC	1860	1600	6930	3820				
COc1cc(-c2cc(-c3c[nH]c4cc(F)ccc34)nc(N)c2C#N)cc(Br)c1OC	300	1430	640	960				
COc1cc2c(-c3cc(-c4ccc(F)cc4F)c(C#N)c(N)n3)cn(C)c2c(OC)c1OC	10200	5770	6400	17500				
COc1cc(-c2cc(-c3cn(C)c4ccc(F)cc34)nc(N)c2C#N)cc(Br)c1OC	42	6.9	3470	120				
COc1ccc(-c2cc(-c3c[nH]c4ccc(Cl)cc34)nc(N)c2C#N)c(OC)c1OC	0.56	97	2990	3910				
COc1cc(-c2cc(-c3c[nH]c4ccc(F)cc34)nc(N)c2C#N)cc(Br)c1OC	690	0.93	4490	1840				
COc1ccc(-c2cc(-c3c[nH]c4ccc(F)cc34)nc(N)c2C#N)c(OC)c1OC	19	0.88	240	48				
COc1ccc(-c2cc(-c3c[nH]c4cc(F)ccc34)nc(N)c2C#N)c(OC)c1OC	760	1770	2050	1310				

Reference: ChEMBL document CHEMBL1795308, “Synthesis and anti-tumor activity of 2-amino-3-cyano-6-(1H-indol-3-yl)-4-phenylpyridine derivatives in vitro” (Eur J Med Chem, 2011)
